Experiments:
ERα+/PR− tumors = conditions: follow-up period of 6 years, postmenopausal women; cited from earlier work
[1] = system: stage II invasive breast cancer; assay: Randomized premenopausal cohort: two years of adjuvant tamoxifen vs control, recurrence free survival (Kaplan-Meier, log-rank) by HMGCR IHC status; format: in vivo, human; conditions: for outcome of HMGCR positive and ER negative patients vs HMGCR negative and ER positive patients: tamoxifen treated cohort
Description: Between 1984 and 1991, 564 pre-menopausal women with primary breast cancer in the South and Southeast regions of Sweden were enrolled in a multi-centre clinical trial and randomly assigned to either two years of adjuvant tamoxifen (n=276) or a control group (n=288). […] The inclusion criteria were pre-menopausal patients, or patients younger than 50 years, with stage II (pT2 N0 M0, pT1-2 N1 M0) invasive breast cancer treated by modified mastectomy or breast conserving surgery with axillary lymph node dissection. Post-operative radiotherapy (50 Gy) was administered after breastconserving surgery and all lymph node-positive patients received locoregional radiotherapy. […] The study design is described in detail elsewhere (Rydén L et al, Eur J Cancer, 2005, 41(2): 256-64). Ethical permission was obtained from the Local Ethics Committees at Lund and Linköping Universities.
Tissue blocks from 500 of the 564 patients could be retrieved for TMA-construction. All cases had been histopathologically re-evaluated on hematoxylin and eosin stained slides. TMA:s were constructed by sampling 2×0.6 mm cores per case from areas representative of invasive cancer, using an manual arraying device (MTA-1, Beecher Inc, WI, USA). […] IHC staining of ER and PR had been performed previously. In line with current clinical praxis, a cut-off at 10% positive nuclei was used to define hormone receptor positively.
For statistical analyses, the cytoplasmic intensity (CI) level was evaluated, in line with what is described in Examples, Section 3 above. […] Two categories were defined: “HMGCR high” corresponding to CI=weak, moderate and strong and “HMGCR low” corresponding to CI=absent This classification of samples was used for RFS analysis according to the Kaplan-Meier estimator, and the log-rank test was used to compare survival in different strata. ER and PR negativity was defined as<10% positively staining nuclei, according to current clinical guidelines in Sweden. All statistical tests were two-sided, and p-values of<0.05 were considered significant. All calculations were made with the statistical package SPSS 17.0 (SPSS Inc. Illinois, USA).

[2] = system: ERα positive breast cancer; conditions: cited from earlier work
HMGCR mRNA = assay: qRT-PCR of HMGCR mRNA levels in MCF7 cells after Simvastatin/Tamoxifen treatment; format: cell-based; conditions: five days, 10 μM Simvastatin or 100 nM Tamoxifen, FIG. 15
Description: Total RNA was isolated using the mirVANA™ miRNA Isolation Kit (Ambion) and reverse transcribed using SuperScript II™ Reverse Transcriptase (Invitrogen) according to the manufacturer's instructions. […] Relative HMG-CoAR expression levels in breast cancer cell lines were calculated using the qBase real-time PCR relative quantification software with all samples normalized to 18s rRNA. Negative controls included a no template control and a no reverse transcriptase control. All qRT-PCR reactions were performed in triplicate.

HMGCR = conditions: MCF7 cells, five days, 10 μM Simvastatin, 100 nM Tamoxifen, or a combination of both, FIG. 14
breast cancer = conditions: 5 years tamoxifen compared to no adjuvant treatment; cited from earlier work
ERα = conditions: MCF7 cells, five days, 10 μM Simvastatin, 100 nM Tamoxifen, or a combination of both, FIG. 14

CC(C)(C#N)c1cc(Cn2cncn2)cc(C(C)(C)C#N)c1 [anastrozole]
recurrence rate compared to patients treated with tamoxifen (ERα+/PR− tumors): halved

CC/C(=C(\c1ccccc1)c1ccc(OCCN(C)C)cc1)c1ccccc1 [tamoxifen]
effect on RFS based on the HMGCR level ([1]; ER negative tamoxifen treated subjects, FIG. 7a): positive effect on RFS | RFS, HMGCR high category vs HMGCR low ([1]; ER positive tamoxifen treated subjects, FIG. 2a): significantly better RFS | effect of tamoxifen treatment on RFS ([1]; HMGCR negative and ER negative subjects, FIG. 10b): no positive effect | survival upon tamoxifen treatment vs no adjuvant endocrine treatment ([1]; HMGCR positive and ER negative subjects, FIG. 9a): improved survival | tamoxifen impact on survival (RFS) ([1]; HMGCR positive and PR negative subjects, FIG. 12, not statistically significant): trend of tamoxifen impact on survival | effect of tamoxifen treatment on RFS ([1]; HMGCR positive or ER positive subjects, FIG. 10a): significantly positive effect | response to tamoxifen treatment (RFS) ([1]; PR negative and HMGCR negative subjects, FIG. 11b): no response | response to tamoxifen treatment (RFS) ([1]; PR positive and HMGCR positive subjects, FIG. 11a): significant response | RFS associated with HMGCR expression ([1]; lymph node positive patients who received tamoxifen, FIG. 4a): improved RFS | survival of HMGCR positive subjects ([1]; node negative subgroups treated with tamoxifen, FIGS. 4b and 5b, too few patients for significance): trend of better survival | outcome of HMGCR positive and ER negative patients vs HMGCR negative and ER positive patients ([1]; node positive subjects, FIG. 6a): better outcome | recurrence free survival (RFS), HMGCR high category vs HMGCR low category ([1]; patients treated with adjuvant tamoxifen, FIG. 1a): significantly better RFS | survival upon tamoxifen treatment vs no adjuvant endocrine treatment ([1]; patients with HMGCR high tumors, irrespective of ER status, FIG. 8a): significantly improved survival | survival upon tamoxifen treatment vs no adjuvant endocrine treatment ([1]; patients with HMGCR low tumors, irrespective of ER status, FIG. 8b): no impact on survival | outcome of HMGCR positive and ER negative patients vs HMGCR negative and ER positive patients ([1]; FIG. 3a): better outcome | fraction of patients who do not respond to tamoxifen treatment [2]: 30-40% | HMGCR levels of mRNA after treatment (HMGCR mRNA): slight increase | HMGCR expression (Western blot) (HMGCR): slight HMGCR expression | reduction in breast cancer specific mortality (breast cancer): 34% | reduction in disease recurrence (breast cancer): 41% | ERα expression (Western blot) (ERα): no ERα expression
